Data: patent US20250276977A1, “TYK2 INHIBITORS AND USES THEREOF” (Alumis Inc., priority 2019, published 2025)

Legend:
IL-2-induced pSTAT5 = IL-2-induced pSTAT5 in human PBMC; format: cell-based; settings: 20 ng/ml of IL-2
Protocol: (§1) Similar to the method for INFα induced pSTAT5 in human PBMC described above, these assays were performed to check if test compounds have cross-activity to JAK1. JAK2 and JAK3 pathways in human PBMC. The procedure is as described with change of stimuli to 10 ng/ml of GM-CSF or 20 ng/ml of IL-2.

GM-CSF-induced pSTAT5 = GM-CSF-induced pSTAT5 in human PBMC; format: cell-based; settings: 10 ng/ml of GM-CSF
Protocol: as §1

INFα induced pSTAT5 = INFα induced pSTAT5 in human PBMC; format: cell-based; settings: Homo sapiens, PBMC, INFα 5000 units/ml, read-out: p-STAT5 IC50
Protocol: (§2) Fresh Human PBMCs were resuspended in RPMI 1640 medium with 10% FBS. Cells were seeded in a round bottom 96-well plate at the concentration of 200,000 cells/well. A 10-point dilution series of test compound (top dose 10 uM, 1:5 dilution) was added to the well using the liquid dispenser (Tecan D300e) and incubated for 1 hour at 37 C. Then human INFα recombinant protein (R&D Systems) was added to the well at the final concentration of 5000 units/ml and incubated for 15 minutes at 37 C. Cell lysates were prepared and analyzed by Phospho STAT3 (Tyr705) cellular kit (Cisbio) or Phospho STAT5 (Tyr693) Kit (Meso Scale Discovery) following manufacturer's protocol.
(§3) For calculation of the inhibition rate, the relative pSTAT signal of each well=pSTAT signal of each well−the average pSTAT signal of baseline.
(§4) The inhibition %=(the average pSTAT signal of INFα treatment wells—the relative of pSTAT signal in each compound containing well)/the average pSTAT signal of INFα treatment wells * 100%
(§5) The curve was plotted as the inhibition % (y-axis) vs. compounds concentration (x-axis) and was fitted with log(inhibitor) vs. normalized response—Variable slope by GraphPad Prism7.0.

[1] = target: T1, human TYK2 (JH2domain-pseudokinase) (Homo sapiens, UniProt P29597); assay: TYK2 JH2 domain binding assay (KINOMEscan); settings: duplicate
T1 construct: host or cells: transiently transfected HEK293 cells; unpurified extract
T1 sequence (P29597 556-888): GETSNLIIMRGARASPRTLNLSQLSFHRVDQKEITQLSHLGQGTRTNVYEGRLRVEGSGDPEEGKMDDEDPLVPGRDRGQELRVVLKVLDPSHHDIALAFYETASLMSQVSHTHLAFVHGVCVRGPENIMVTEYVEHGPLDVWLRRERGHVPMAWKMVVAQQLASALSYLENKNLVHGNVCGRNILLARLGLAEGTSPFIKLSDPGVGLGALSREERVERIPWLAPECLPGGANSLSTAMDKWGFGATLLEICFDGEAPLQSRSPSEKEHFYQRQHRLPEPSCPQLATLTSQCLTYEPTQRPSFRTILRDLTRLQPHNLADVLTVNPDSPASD
Protocol: Binding constants for the compounds described herein against the JH2 domain were determined by the following protocol for a KINOMEscan® assay (DiscoveRx). A fusion protein of a partial length construct of human TYK2 (JH2domain-pseudokinase) (amino acids G556 to D888 based on reference sequence NP_003322.3) and the DNA binding domain of NFkB is expressed in transiently transfected HEK293 cells. From these HEK 293 cells, extracts are prepared in M-PER extraction buffer (Pierce) in the presence of Protease Inhibitor Cocktail Complete (Roche) and Phosphatase Inhibitor Cocktail Set II (Merck) per manufacturers' instructions. The TYK2 (JH2domain-pseudokinase) fusion protein is labeled with a chimeric double-stranded DNA tag containing the NFkB binding site fused to an amplicon for qPCR readout, which is added directly to the expression extract (the final concentration of DNA-tag in the binding reaction is 0.1 nM).
The liganded beads are blocked with excess biotin and washed with blocking buffer (SeaBlock (Pierce), 1% BSA, 0.05% Tween 20, 1 mM DTT) to remove unbound ligand and to reduce nonspecific binding.
Extracts are used directly in binding assays without any enzyme purification steps at a ≥10,000-fold overall stock dilution (final DNA-tagged enzyme concentration <0.1 nM). Extracts are loaded with DNA-tag and diluted into the binding reaction in a two-step process. First extracts are diluted 1:100 in 1× binding buffer (PBS/0.05% Tween 20/10 mM DTT/0.1% BSA/[…] sonicated salmon sperm DNA) containing 10 nM DNA-tag. This dilution is allowed to equilibrate at room temperature for 15 minutes and then subsequently diluted 1:100 in 1× binding buffer. Test compounds were prepared as 111×stocks in 100% DMSO. […] The compounds are then diluted directly into the assays such that the final concentration of DMSO was 0.9%. All reactions are performed in polypropylene 384-well plates. Each was a final volume of 0.02 mL.
Assays are incubated with shaking for 1 hour at room temperature. Then the beads are pelleted and washed with wash buffer (1×PBS, 0.05% Tween 20) to remove displaced kinase and test compound. […] The kinase concentration in the eluates was measured by qPCR. qPCR reactions are assembled by adding […] of kinase eluate to […] of qPCR master mix containing […] amplicon primers and […] amplicon probe. The qPCR protocol consisted of a 10 minute hot start at 95° C., followed by 35 cycles of 95° C. for 15 seconds, 60° C. for 1 minute.
Test compounds are prepared as 111×stocks in 100% DMSO. […] The compounds are then diluted directly into the assays such that the final concentration of DMSO was 0.9%. The Kds are determined using a compound top concentration of 30,000 nM. Kd measurements are performed in duplicate.
Binding constants (Kds) were calculated with a standard dose-response curve using the Hill equation: […]
The Hill Slope was set to −1. Curves were fitted using a non-linear least square fit with the Levenberg-Marquardt algorithm (Levenberg, K., A method for the solution of certain non-linear problems in least squares, Q. Appl. Math. 2, 164-168 (1944)).

[2] = Pharmacokinetic studies in Sprague Dawley rats; format: in vivo; settings: rat, plasma, male Sprague Dawley rats
Protocol: The pharmacokinetics of test compounds were evaluated in male Sprague Dawley rats when administered via oral gavage and IV injection. The test compound was suspended in 0.5% methylcellulose for oral gavage and dissolved in 5% DMSO/5% Solutol/90% saline for IV injection. The animals were fasted overnight before administration. Plasma samples were collected predose and at 0.5, 1, 3, 6, 9, 12, and 24 hours postdose. The samples were analyzed by LC/MS/MS and the concentration of test compound at each timepoint was determined by linear regression. Pharmacokinetic parameters were calculated from the plasma concentrations using Pheonix WinNonlin.

JAK1 (JH2 domain) = target: T2, JAK1 (JH2 domain) (Homo sapiens, UniProt P23458); assay: JAK1 JH2 domain binding assay (KINOMEscan)
T2 construct: inferred from 'similar to the method' for TYK2 JH2; DiscoverX (KINOMEscan)
T2 sequence (P23458 583-855 limits assumed): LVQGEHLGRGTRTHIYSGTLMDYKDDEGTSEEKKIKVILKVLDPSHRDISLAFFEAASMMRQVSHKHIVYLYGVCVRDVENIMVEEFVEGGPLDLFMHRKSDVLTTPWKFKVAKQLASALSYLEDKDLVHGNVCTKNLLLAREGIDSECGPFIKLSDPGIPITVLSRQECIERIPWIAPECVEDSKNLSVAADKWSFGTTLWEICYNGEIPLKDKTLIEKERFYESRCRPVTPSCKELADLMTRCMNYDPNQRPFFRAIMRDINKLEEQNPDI
Protocol: (§6) Similar to the method for TYK2 JH2 binding described above, JAK1 JH2 and JAK2 JH1 domain binding assay was performed using DiscoverX's KINOMEscan™, but with change of kinase domain. These assays were performed to compare the binding selectivity of test compounds to JAK1 JH2 and JAK2 JH1 domain.

JAK2 (JH1 domain) = target: T3, JAK2 (JH1 domain) (Homo sapiens, UniProt O60674); assay: JAK2 JH1 domain binding assay (KINOMEscan)
T3 construct: inferred from 'similar to the method' for TYK2 JH2; DiscoverX (KINOMEscan)
T3 sequence (O60674 849-1124 limits assumed): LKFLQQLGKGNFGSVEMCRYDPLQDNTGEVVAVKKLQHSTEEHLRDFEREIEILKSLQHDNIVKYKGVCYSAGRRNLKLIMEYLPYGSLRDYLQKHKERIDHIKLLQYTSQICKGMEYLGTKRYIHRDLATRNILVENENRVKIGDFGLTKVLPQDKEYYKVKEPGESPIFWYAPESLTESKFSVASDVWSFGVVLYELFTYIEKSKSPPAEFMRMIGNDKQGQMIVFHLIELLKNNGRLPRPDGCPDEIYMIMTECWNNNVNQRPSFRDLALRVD
Protocol: as §6

[3] = tested on: JAK2/TYK2 (IL-12 induced pSTAT4); assay: IL-12 induced pSTAT4 in human PBMC; format: cell-based; settings: IL-12 10 ng/ml
Protocol: as §2, with “IL-12” for “INFα”, “10 ng/ml” for “5000 units/ml”, “STAT4” for “STAT3 (Tyr705) cellular kit (Cisbio) or Phospho STAT5”
For calculation of the inhibition rate, the relative pSTAT4 signal of each well=pSTAT4 signal of each well−the average pSTAT4 signal of baseline.
The inhibition %=(the average pSTAT4 signal of IL-12 treatment wells—the relative of pSTAT4 signal in each compound containing well)/the average pSTAT4 signal of IL-12 treatment wells*100%
as §5

INFα induced pSTAT3 = INFα induced pSTAT3 in human PBMC; format: cell-based; settings: INFα 5000 units/ml, read-out: p-STAT3 IC50
Protocol: as §2, §3, §4, §5

| SMILES | IC50 (IL-2-induced pSTAT5) [nM] | IC50 (INFα induced pSTAT5) [nM] | Kd [1] [nM] | IC50 [3] [nM] | also measured |
| --- | --- | --- | --- | --- | --- |
| [2H]C([2H])([2H])NC(=O)c1nnc(NC(=O)C2CC2)cc1Nc1cccc(-c2ncn(C)n2)c1OC [control, BMS-986165, reference compound] | 442 |  |  |  | IC50 (GM-CSF-induced pSTAT5): 1310 nM |
| CNc1cc2nn3c(cnc13)C(=O)NC(C)COCc1ccc(OC)c(c1)N2 (centres unmarked) [Example 7] |  | 2.3 | 0.0071 |  | AUC ([2]; iv, I.V. (1 mg/kg)): 318 ± 30 ng·h/mL; C0 ([2]; iv, I.V. (1 mg/kg)): 1230 ± 153 ng/mL; clearance ([2]; iv, I.V. (1 mg/kg)): 52.4 ± 5.3 mL/min/kg; half-life ([2]; iv, I.V. (1 mg/kg)): 18 ± 0.96 min; Vd ([2]; iv, I.V. (1 mg/kg), read-out: Vdss): 0.956 ± 0.1 L/kg; AUC ([2]; Oral (5 mg/kg)): 84.9 ± 36 ng·h/mL; Cmax ([2]; Oral (5 mg/kg)): 18.2 ± 3.1 ng/mL; Tmax ([2]; Oral (5 mg/kg)): 40 ± 17.4 min; bioavailability ([2]; Oral (5 mg/kg)): 5.34 ± 2.3%; half-life ([2]; Oral (5 mg/kg)): 238 ± 66 min |
| CNc1cc2nc3c(cnn13)C(=O)N[C@H](C)COCc1ccc(C(F)(F)F)c(c1)N2 [Example 10] | > 10000 | 1.2 | 0.0023 |  | Kd (JAK1 (JH2 domain)): 430 nM; Kd (JAK2 (JH1 domain)): 7300 nM |
| CNc1cc2nc3c(cnn13)C(=O)NCCCOc1ccc(OC)c(c1)N2 [Example 3] |  |  | 0.96 | 1150 | IC50 (INFα induced pSTAT3): 1460 nM |
| CNc1cc2nc3c(cnn13)C(=O)NCCOCc1ccc(OC)c(c1)N2 [Example 2] |  |  | 0.14 | 12.2 |  |
| CNc1cc2nn3c(cnc13)C(=O)NCCOCc1ccc(OC)c(c1)N2 [Example 6] |  | 26.2 | 0.071 |  |  |
| CNc1cc2nc3c(cnn13)C(=O)NCCOCc1cnc(OC)c(c1)N2 [Example 1] |  |  | 0.24 | 281 | IC50 (INFα induced pSTAT3): 87.5 nM |
| CNc1cc2nn3c(cnc13)C(=O)N[C@H](C)COCc1cc(c(OC)c(F)c1F)N2 [Example 19, (7R,E)-3^4,3^5-difluoro-3^6-methoxy-7-methyl-1^8-(methylamino)-5-oxa-2,8-diaza-1(6,3)-imidazo[1,2-b]pyridazina-3(1,3)-benzenacyclononaphan-9-one] | 38500 | 8.7 |  |  |  |
| CNc1cc2nn3c(cnc13)C(=O)NCCCOc1ccc(OC)c(c1)N2 [Example 4] |  |  | 0.38 | 16.1 |  |
| CNc1cc2nn3c(cnc13)C(=O)N[C@H](C)COCc1cc(c3nn(C)cc3c1)N2 [Example 24] | 9390 | 0.5 |  |  |  |
